From patent US20140323418A1, “SELECTIVE KINASE INHIBITORS” (PORTOLA PHARMACEUTICALS, INC., priority 2011, published 2014)

What follows are compounds tested against T1, full length active recombinant SYK enzyme (Homo sapiens, UniProt P43405) (assay: Inhibition of Syk tyrosine phosphorylation activity (LANCE TR-FRET kinase assay)). Conditions: 1 nM SYK, 550 nM substrate, 100 μM ATP, 1 hour room temperature.
T1 construct: full length active recombinant SYK enzyme (Millipore, Calif.); purchased Millipore
Type: biochemical

IC50 | SMILES
0.01 to 0.1 µM | CC[C@@H](Nc1ncc(C(N)=O)c(Nc2ccc(-c3cnns3)cc2)n1)C(N)=O [Example 59, (R)-4-((4-(1,2,3-thiadiazol-5-yl)phenyl)amino)-2-((1-amino-1-oxobutan-2-yl)amino)pyrimidine-5-carboxamide]
0.1 to 1 µM | CC[C@@H](Nc1ncc(C(N)=O)c(Nc2cccc(OC)c2)n1)C(N)=O [Example 60, (R)-2-((1-amino-1-oxobutan-2-yl)amino)-4-((3-methoxyphenyl)amino)pyrimidine-5-carboxamide]
0.1 to 1 µM | CCC[C@@H](Nc1ncc(C(N)=O)c(Nc2cccc(OC)c2)n1)C(N)=O [Example 61, (R)-2-((1-amino-1-oxopentan-2-yl)amino)-4-((3-methoxyphenyl)amino)pyrimidine-5-carboxamide]
0.01 to 0.1 µM | COc1cccc(Nc2nc(N[C@H](CC(C)C)C(N)=O)ncc2C(N)=O)c1 [Example 62, (R)-2-((1-amino-4-methyl-1-oxopentan-2-yl)amino)-4-((3-methoxyphenyl)amino)pyrimidine-5-carboxamide]
0.1 to 1 µM | COc1cccc(Nc2nc(N[C@H](CC3CC3)C(N)=O)ncc2C(N)=O)c1 [Example 63, (R)-2-((1-amino-3-cyclopropyl-1-oxopropan-2-yl)amino)-4-((3-methoxyphenyl)amino)pyrimidine-5-carboxamide]
0.1 to 1 µM | COc1cccc(Nc2nc(N[C@@H](C(N)=O)C3CC3)ncc2C(N)=O)c1 [Example 64, (R)-2-((2-amino-1-cyclopropyl-2-oxoethyl)amino)-4-((3-methoxyphenyl)amino)pyrimidine-5-carboxamide]
0.01 to 0.1 µM | CC[C@@H](Nc1ncc(C(N)=O)c(Nc2cc(C)ns2)n1)C(N)=O [Example 65, (R)-2-((1-amino-1-oxobutan-2-yl)amino)-4-((3-methylisothiazol-5-yl)amino)pyrimidine-5-carboxamide]
0.01 to 0.1 µM | CC[C@@H](Nc1ncc(C(N)=O)c(Nc2cnc3ccccc3c2)n1)C(N)=O [Example 68, (R)-2-(1-amino-1-oxobutan-2-ylamino)-4-(quinolin-3-ylamino)pyrimidine-5-carboxamide]
0.01 to 0.1 µM | CC(C)[C@@H](Nc1ncc(C(N)=O)c(Nc2ccc3ncccc3c2)n1)C(N)=O [Example 69, (R)-2-(1-amino-3-methyl-1-oxobutan-2-ylamino)-4-(quinolin-6-ylamino)pyrimidine-5-carboxamide]
0.1 to 1 µM | CC(C)[C@@H](Nc1ncc(C(N)=O)c(Nc2ccc3c(ccc[n+]3[O-])c2)n1)C(N)=O [Example 70, (R)-2-(1-amino-3-methyl-1-oxobutan-2-ylamino)-4-(quinolin-6-ylamino)pyrimidine-5-carboxamide N-oxide]
0.01 to 0.1 µM | CC[C@@H](Nc1ncc(C(N)=O)c(Nc2ccc3ccncc3c2)n1)C(N)=O [Example 71, (R)-2-(1-amino-1-oxobutan-2-ylamino)-4-(isoquinolin-7-ylamino)pyrimidine-5-carboxamide]
0.01 to 0.1 µM | NC(=O)c1cnc(N[C@@H]2CCCC[C@@H]2N)nc1Nc1ccc2ccncc2c1 [Example 73, 2-((1R,2S)-2-aminocyclohexylamino)-4-(isoquinolin-7-ylamino)pyrimidine-5-carboxamide]
0.01 to 0.1 µM | NC(=O)c1cnc(N[C@H](CC2CC2)C(N)=O)nc1Nc1cnc2ccccc2c1 [Example 74, (R)-2-(1-amino-3-cyclopropyl-1-oxopropan-2-ylamino)-4-(quinolin-3-ylamino)pyrimidine-5-carboxamide]
0.01 to 0.1 µM | NC(=O)c1cnc(N[C@@H]2CCCC[C@@H]2N)nc1Nc1ccc2cccnc2c1 [Example 75, 2-((1R,2S)-2-aminocyclohexylamino)-4-(quinolin-7-ylamino)pyrimidine-5-carboxamide]
0.001 to 0.01 µM | CCn1ccc2c(Nc3nc(NC[C@@H](N)CC(F)F)ncc3C(N)=O)cccc21 [Example 76, (S)-2-(2-amino-4,4-difluorobutylamino)-4-(1-ethyl-1H-indol-4-ylamino)pyrimidine-5-carboxamide]
0.1 to 1 µM | CC(C)[C@@H](Nc1ncc(C(N)=O)c(Nc2ccc3cccnc3c2)n1)C(N)=O [Example 77, (R)-2-(1-amino-3-methyl-1-oxobutan-2-ylamino)-4-(quinolin-7-ylamino)pyrimidine-5-carboxamide]
0.01 to 0.1 µM | Cc1cccc(Nc2nc(NC[C@@H](N)CC(F)F)ncc2C(N)=O)c1 [Example 78, (S)-4-(m-toluidino)-2-(2-amino-4,4-difluorobutylamino)pyrimidine-5-carboxamide]
0.1 to 1 µM | N#Cc1cccc(Nc2nc(NC[C@@H](N)CC(F)F)ncc2C(N)=O)c1 [Example 82, (S)-2-(2-amino-4,4-difluorobutylamino)-4-(3-cyanophenylamino)pyrimidine-5-carboxamide]
0.1 to 1 µM | Cc1ccc(Nc2nc(NC[C@@H](N)CC(F)F)ncc2C(N)=O)cc1 [Example 83, (S)-4-(p-toluidino)-2-(2-amino-4,4-difluorobutylamino)pyrimidine-5-carboxamide]

IC50 | SMILES
0.001 to 0.01 µM | NC(=O)c1cnc(NC[C@@H](N)CC(F)F)nc1Nc1cccc2c1ccn2CC(F)(F)F [Example 84, (S)-2-(2-amino-4,4-difluorobutylamino)-4-(1-(2,2,2-trifluoroethyl)-1H-indol-4-ylamino)pyrimidine-5-carboxamide]
0.001 to 0.01 µM | Cn1ccc2c(Nc3nc(NC[C@@H](N)CC(F)F)ncc3C(N)=O)cccc21 [Example 85, (S)-2-(2-amino-4,4-difluorobutylamino)-4-(1-methyl-1H-indol-4-ylamino)pyrimidine-5-carboxamide]
0.01 to 0.1 µM | Cn1ccc2c(Nc3nc(NC[C@@H](N)CC(F)F)ncc3C(N)=O)ccc(F)c21 [Example 86, (S)-2-(2-amino-4,4-difluorobutylamino)-4-(7-fluoro-1-methyl-1H-indol-4-ylamino)pyrimidine-5-carboxamide]
0.01 to 0.1 µM | Cc1cc2c(Nc3nc(NC[C@@H](N)CC(F)F)ncc3C(N)=O)cccc2n1C [Example 87, (S)-2-(2-amino-4,4-difluorobutylamino)-4-(1,2-dimethyl-1H-indol-4-ylamino)pyrimidine-5-carboxamide]
0.001 to 0.01 µM | CCn1ccc2c(Nc3nc(N[C@@H](CN)C4CC4)ncc3C(N)=O)cccc21 [Example 88, (R)-2-(2-amino-1-cyclopropylethylamino)-4-(1-ethyl-1H-indol-4-ylamino)pyrimidine-5-carboxamide]
0.01 to 0.1 µM | Cc1cccc(Nc2nc(N[C@@H](CN)CC(F)F)ncc2C(N)=O)c1 [Example 89, (R)-4-(m-toluidino)-2-(1-amino-4,4-difluorobutan-2-ylamino)pyrimidine-5-carboxamide]
0.01 to 0.1 µM | Cn1ccc2c(Nc3nc(N[C@@H]4CCCC(F)(F)[C@@H]4N)ncc3C(N)=O)cccc21 [Example 91, 2-((1R,2R)-2-amino-3,3-difluorocyclohexylamino)-4-(1-methyl-1H-indol-4-ylamino)pyrimidine-5-carboxamide]
0.01 to 0.1 µM | CCn1ccc2c(Nc3nc(N[C@@H]4CCCC(F)(F)[C@@H]4N)ncc3C(N)=O)cccc21 [Example 92, 2-((1R,2R)-2-amino-3,3-difluorocyclohexylamino)-4-(1-ethyl-1H-indol-4-ylamino)pyrimidine-5-carboxamide]
0.01 to 0.1 µM | NC(=O)c1cnc(N[C@@H]2CCCC(F)(F)[C@@H]2N)nc1Nc1cccc2c1ccn2CC(F)(F)F [Example 93, 2-((1R,2R)-2-amino-3,3-difluorocyclohexylamino)-4-(1-(2,2,2-trifluoroethyl)-1H-indol-4-ylamino)pyrimidine-5-carboxamide]
0.001 to 0.01 µM | Cn1ccc2c(Nc3nc(NC[C@@H](N)CC(F)F)ncc3C(N)=O)ccnc21 [Example 94, (S)-2-(2-amino-4,4-difluorobutylamino)-4-(1-methyl-1H-pyrrolo[2,3-b]pyridin-4-ylamino)pyrimidine-5-carboxamide]
0.1 to 1 µM | NC(=O)c1cnc(NC[C@@H](N)CC(F)F)nc1Nc1cccc(-c2ncccn2)c1 [Example 95, (S)-2-(2-amino-4,4-difluorobutylamino)-4-(3-(pyrimidin-2-yl)phenylamino)pyrimidine-5-carboxamide]
0.1 to 1 µM | CN1C(=O)Cc2c(Nc3nc(N[C@@H]4CCCC[C@@H]4N)ncc3C(N)=O)cccc21 [Example 96, 2-((1R,2S)-2-aminocyclohexylamino)-4-(1-methyl-2-oxoindolin-4-ylamino)pyrimidine-5-carboxamide]
0.01 to 0.1 µM | NC(=O)c1cnc(NC[C@@H](N)CC(F)F)nc1Nc1cccc2c1CCN2CC(F)(F)F [Example 97]
0.01 to 0.1 µM | CN1CCc2c(Nc3nc(NC[C@@H](N)CC(F)F)ncc3C(N)=O)cccc21 [Example 98, (S)-2-(2-amino-4,4-difluorobutylamino)-4-(1-methylindolin-4-ylamino)pyrimidine-5-carboxamide]
0.01 to 0.1 µM | CCN1CCc2c(Nc3nc(N[C@@H](CN)C4CC4)ncc3C(N)=O)cccc21 [Example 99, (R)-2-(2-amino-1-cyclopropylethylamino)-4-(1-ethylindolin-4-ylamino)pyrimidine-5-carboxamide]
0.1 to 1 µM | CCc1c(C)c2c(Nc3nc(N[C@@H]4CCCC[C@@H]4N)ncc3C(N)=O)cccc2n1C [Example 100, 2-((1R,2S)-2-aminocyclohexylamino)-4-(2-ethyl-1,3-dimethyl-1H-indol-4-ylamino)pyrimidine-5-carboxamide]
0.1 to 1 µM | CCc1c(C)n(C)c2cccc(Nc3nc(N[C@@H]4CCCC[C@@H]4N)ncc3C(N)=O)c12 [Example 101, 2-((1R,2S)-2-aminocyclohexylamino)-4-(3-ethyl-1,2-dimethyl-1H-indol-4-ylamino)pyrimidine-5-carboxamide]
0.01 to 0.1 µM | CCCc1cc2c(Nc3nc(N[C@@H]4CCCC[C@@H]4N)ncc3C(N)=O)cccc2n1C [Example 102, 2-((1R,2S)-2-aminocyclohexylamino)-4-(1-methyl-2-propyl-1H-indol-4-ylamino)pyrimidine-5-carboxamide]
